Marks after values point to notes of the source that are not given here.
How the values were obtained:
[1] = system: Aedes aegypti Puerto Rican strain (pyrethroid-resistant); test: Topical application KD50 and LD50, pyrethroid-resistant strain
[2] = system: Aedes aegypti Orlando strain (pyrethroid-susceptible); test: Topical application KD50 and LD50, pyrethroid-susceptible strain
[3] = system: pyrethroid-susceptible (Orlando) strain of Aedes aegypti female adult mosquitoes; test: Spatial repellency, static air repellency chamber, Orlando strain; assay type: in vivo; conditions: for EC50 (spatial repellency): 1 hour after introducing treated filter papers
Procedure: Spatial repellency of pogostone was assessed on pyrethroid-susceptible (Orlando) and pyrethroid-resistant (Puerto Rico) strains of Aedes aegypti female adult mosquitoes. Repellency bioassays were performed using a static air repellency chamber, which has been described previously (Schultz, 2006; Peterson, 2018). Briefly, the repellency chamber consists of a clear glass cylinder 600 mm in length with an inner diameter of roughly 85 mm laying horizontally. One end of the cylinder is capped with an untreated 90-mm filter paper (Whatman No. 1) contained in a 90-mm inner diameter glass petri dish, and sealed with tape to remain closed. The other end is capped in the same manner, except the filter paper has been treated with 1 mL of a 0.5% (w/v) solution of a monoterpenoid ester in acetone, resulting in 78.6 μg/cm^2 of repellent on the filter paper. The solution was added to the filter paper evenly and at a rate such that the evaporation of acetone prevents loss of compound from dripping, and the acetone was allowed to evaporate at room temperature for a further 10 minutes before use for the short-term repellency assay, or for an additional five hours under open air in ambient conditions in the case of long-term repellency studies. Shortly after placing the filter papers on the end of the tube, twenty (not blood fed) female […] mosquitoes were anesthetized with carbon dioxide, and placed into the tube via a 20-mm hole halfway down the length of the tube, and the hole was sealed. This process is performed with as little disturbance to the air in the tube as possible. The distribution of mosquitoes between the treated and untreated sides was then noted at 15, 30, 60, 90, 120, and 150 minutes after placement into the tube. Repellency ratio of Orlando or Puerto Rico mosquitoes was recorded as a proportion of the number of mosquitoes on the treated side of the tube compared to the whole tube [number of treated side/total number throughout entire tube] at 1 hour after introducing the treated filter papers.

[4] = system: Aedes aegypti adult female mosquitoes; test: LD50 of insecticides alone and in combination with sublethal pogostone; assay type: in vivo; conditions: for Synergism Ratio: LD50 of insecticide alone / LD50 of insecticide in combination with pogostone; for LD50: insecticide alone or with pogostone at sublethal dosage, pogostone effect corrected with Abbott's formula
Source text: The dashed line indicates sublethal dosage of pogostone used for synergist experiments in Example 2.
Synergism ratios are presented as the ratio of the LD50 of insecticide alone and the LD50 of insecticide applied in combination with pogostone. The insecticidal effect of pogostone alone is corrected for using Abbott's formula (Equation 1) in all treatments using pogostone.

[5] = system: Stable flies (S); test: Median lethal dose determination, stable fly; assay type: in vivo; conditions: 24-hour
Procedure: (§1) 24-hour median lethal dose determinations of pogostone and permethrin were performed in three house fly strains and one stable fly strain. The KS17 resistant strain below is simultaneously resistant to organophosphates, carbamates, and synthetic pyrethroids.

[6] = system: house fly strain WHF (R); test: Median lethal dose determination, house fly WHF; assay type: in vivo; conditions: for LD50: WHF (R); for RR (resistance ratio): WHF (R) LD50 divided by susceptible strain LD50
Procedure: as §1
(§2) 48-hour median lethal dose determinations of pogostone and permethrin were performed in three house fly strains. The KS17 resistant strain below is simultaneously resistant to organophosphates, carbamates, and synthetic pyrethroids.

[7] = system: house fly strain CAR21 (S); test: Median lethal dose determination, house fly CAR21; assay type: in vivo
Procedure: as §1, §2

[8] = system: house fly strain KS17 (R); test: Median lethal dose determination, house fly KS17; assay type: in vivo; conditions: for LD50: KS17 (R); for RR (resistance ratio): KS17 (R) LD50 divided by susceptible strain LD50, NS = not significantly different
Procedure: as §1, §2

[9] = system: pyrethroid-resistant (Puerto Rico) strain of Aedes aegypti female adult mosquitoes; test: Spatial repellency, static air repellency chamber, Puerto Rico strain; assay type: in vivo
Procedure: Spatial repellency of pogostone was assessed on pyrethroid-susceptible (Orlando) and pyrethroid-resistant (Puerto Rico) strains of Aedes aegypti female adult mosquitoes. Repellency bioassays were performed using a static air repellency chamber, which has been described previously (Schultz, 2006; Peterson, 2018). Briefly, the repellency chamber consists of a clear glass cylinder 600 mm in length with an inner diameter of roughly 85 mm laying horizontally. One end of the cylinder is capped with an untreated 90-mm filter paper (Whatman No. 1) contained in a 90-mm inner diameter glass petri dish, and sealed with tape to remain closed. The other end is capped in the same manner, except the filter paper has been treated with 1 mL of a 0.5% (w/v) solution of a monoterpenoid ester in acetone, resulting in 78.6 μg/cm^2 of repellent on the filter paper. […] Repellency ratio of Orlando or Puerto Rico mosquitoes was recorded as a proportion of the number of mosquitoes on the treated side of the tube compared to the whole tube [number of treated side/total number throughout entire tube] at 1 hour after introducing the treated filter papers.

SMILES	KD50 [1]	LD50 [1]	KD50 [2]	LD50 [2]	EC50 (spatial repellency) [3]	Synergism Ratio [4]	LD50 [4]	LD50 [5]	LD50 ([6]; 24-hour)	RR (resistance ratio) ([6]; 24-hour)	LD50 ([6]; 48-hour)	RR (resistance ratio) ([6]; 48-hour)	LD50 ([7]; 24-hour)	LD50 ([7]; 48-hour)	LD50 ([8]; 24-hour)	LD50 ([8]; 48-hour)	also measured
Clc1ccc(C(c2ccc(Cl)cc2)C(Cl)(Cl)Cl)cc1 [DDT]	350 ng/mg	530 ng/mg	9.5 ng/mg	9.6 ng/mg													
CCN(CC)C(=O)c1cccc(C)c1 [DEET]					approximately 10 μg/cm^2												
CN/C(=N/CC1CCOC1)N[N+](=O)[O-] (stereo not shown) [Dinotefuran]						6.0*	12.7 ng/mg										
CC1(C)C(C=C(Cl)Cl)C1C(=O)OCc1cccc(Oc2ccccc2)c1 (stereo not shown) [Permethrin]						2.6*	0.37 ng/mg	1.81 ng/fly	1,100 ng/fly	71.5	894 ng/fly	61.7	15.4 ng/fly	14.5 ng/fly	>5000 ng/fly	>5,000 ng/fly	RR (resistance ratio) ([8]; 24-hour): 325.1; RR (resistance ratio) ([8]; 48-hour): 344.8
Cc1cc(O)c(C(=O)CCC(C)C)c(=O)o1 [pogostone]	14 ng/mg	70 ng/mg	11 ng/mg	96 ng/mg	3.6 μg/cm^2			540 ng/fly	13,900 ng/fly	1.8	9,900 ng/fly	1.5	7,600 ng/fly	6,800 ng/fly	10,700 ng/fly	6,890 ng/fly	spatial repellency (in words) ([3]; FIG. 2): considerably repellent; EC50 (spatial repellency) ([9]; 1 hour after introducing treated filter papers): 2.5 μg/cm^2; spatial repellency (in words) ([9]; FIG. 2): considerably repellent

From US20250241308A1, “COMPOSITIONS AND METHODS FOR CONTROLLING PESTS” (PYRONE SYSTEMS, INC., priority 2022, published 2025)
